ChEMBL document CHEMBL5137055, “Near-Infrared Fluorescent Probes as Imaging and Theranostic Modalities for Amyloid-Beta and Tau Aggregates in Alzheimer's Disease” (J Med Chem, 2022)

molecular target: not listed separately; experiment: Binding affinity to amyloid beta (unknown origin); design: species or system Homo sapiens; conditions: not given

In order of falling Ki:
1. CN(C)c1ncc(/C=C/C=C/C=C/C=C(C#N)C#N)cn1  978 nM
2. COC(=O)C(=C/C=C/C=C/c1ccc(N(C)C)cc1)C(=O)OC  645 nM
3. O=C(O)c1cc(/N=N/c2ccc(-c3ccc(/N=N/c4ccc(O)c(C(=O)O)c4)cc3)cc2)ccc1O [CHRYSAMINE G]  370 nM
4. COc1cc(/C=C/C(O)=C/C(=O)/C=C/c2ccc(OCCCF)c(OC)c2)ccc1O  0.07 nM

In order of falling Kd:
1. CN(C)c1ccc(-c2ccc(/C=C/C3=CC(=C(C#N)C#N)c4ccccc4N3CCCS(=O)(=O)O)s2)cc1  170 nM
2. CN(C)c1ccc2cc3c(cc2c1)OCC(C=C(C#N)C#N)=C3  44.6 nM
3. CNc1ccc(-c2nc3ccc(O)cc3s2)cc1[18F] [FLUTEMETAMOL F 18]  6.7 nM

molecular target: T1, Amyloid-beta precursor protein (Homo sapiens, UniProt P05067); experiment: Binding affinity to amyloid beta (1 to 42) (unknown origin) aggregates; conditions: not given
T1 sequence (P05067 whole entry): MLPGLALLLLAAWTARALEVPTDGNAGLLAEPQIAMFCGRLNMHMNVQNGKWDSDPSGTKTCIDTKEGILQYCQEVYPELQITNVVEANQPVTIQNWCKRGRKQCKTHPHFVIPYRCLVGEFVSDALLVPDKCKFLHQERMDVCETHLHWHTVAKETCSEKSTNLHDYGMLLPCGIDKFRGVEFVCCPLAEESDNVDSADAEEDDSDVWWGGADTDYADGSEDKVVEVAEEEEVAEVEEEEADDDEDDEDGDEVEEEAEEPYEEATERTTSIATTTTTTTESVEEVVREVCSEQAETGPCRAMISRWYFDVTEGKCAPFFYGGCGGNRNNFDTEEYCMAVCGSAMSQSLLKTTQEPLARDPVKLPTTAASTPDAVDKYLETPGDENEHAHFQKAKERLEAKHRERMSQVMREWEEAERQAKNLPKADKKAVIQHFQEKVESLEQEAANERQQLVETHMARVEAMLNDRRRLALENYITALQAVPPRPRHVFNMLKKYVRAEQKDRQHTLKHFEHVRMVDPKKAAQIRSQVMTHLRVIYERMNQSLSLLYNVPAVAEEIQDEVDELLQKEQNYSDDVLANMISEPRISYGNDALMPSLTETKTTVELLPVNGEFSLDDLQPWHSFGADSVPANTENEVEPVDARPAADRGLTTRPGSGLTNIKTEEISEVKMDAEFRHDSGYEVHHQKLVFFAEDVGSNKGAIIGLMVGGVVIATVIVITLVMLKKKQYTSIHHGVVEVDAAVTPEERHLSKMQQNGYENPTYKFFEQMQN

In order of rising Kd:
1. CN(C)c1ccc(/C=C/C=C/C=C(C#N)C#N)cc1  26.9 nM
2. CCN1/C(=C/C=C2\CCCC(/C=C(/C#N)C(=O)C(C)(C)C)=C2Cl)C(C)(C)c2ccccc21  445 nM

In order of falling Ki:
1. CN(C)c1ccc(/C=C/C=C/C=C2C(=O)CC(C)(C)CC2=O)cc1  645 nM
2. CN(C)c1ccc(/C=C/C=C/C=C2C(=O)OC(C)(C)OC2=O)cc1  354 nM
3. CC1=CC(C)=[N+]2C1=Cc1ccc(/C=C/c3ccc(-c4ccc([125I])cc4)s3)n1[B-]2(F)F  108 nM
4. CN(C)c1ccc(/C=C/C=C/C=C(C#N)C#N)cc1  36.9 nM

molecular target: not listed separately; experiment: Binding affinity to amyloid beta (unknown origin) aggregates; design: species or system Homo sapiens; conditions: not given

In order of falling Ki:
1. CN(C)c1ccc2cc(/C=C/C=C(C#N)C#N)ccc2c1  96.7 nM
2. CN(C)c1ccc2cc(/C=C/C=C/C=C(C#N)C#N)ccc2c1  32.7 nM
3. CC(=C(C#N)C#N)c1ccc2cc(N(C)C)ccc2c1  10 nM
4. CC(=C(C#N)C#N)c1ccc2cc(N(C)CCF)ccc2c1  0.2 nM

In order of falling Kd:
1. COCCOCCOCCOC(=O)/C(C#N)=C/c1ccc(N2CCCCC2)cc1  19400 nM
2. COCCOCCOCCOC(=O)/C(C#N)=C/c1ccc(-c2ccc3cc(N4CCCCC4)ccc3c2)n1C  2300 nM
3. COCCOCCOCCOC(=O)/C(C#N)=C/c1ccc(-c2ccc3cc(N4CCCCC4)ccc3c2)s1  530 nM
4. COCCOCCOCCOC(=O)/C(C#N)=C/c1ccc(-c2ccc3cc(N4CCCCC4)ccc3c2)o1  360 nM
5. CCOC(=O)CN1C(=O)S/C(=C\C=C\c2ccc3c(c2)Sc2ccccc2N3C)C1=O  10.3 nM
6. CN(C)c1ccc2cc(/C=C/C=C(C#N)C#N)ccc2c1  8.8 nM
7. CCOC(=O)CN1C(=O)/C(=C/c2ccc3c(c2)Sc2ccccc2N3C)SC1=S  7.5 nM
8. CN(C)c1ccc2cc(/C=C/C=C/C=C(C#N)C#N)ccc2c1  1.9 nM

molecular target: not listed separately; experiment: Binding affinity to amyloid beta (unknown origin) monomer; design: species or system Homo sapiens; conditions: not given

In order of falling Kd:
1. COc1ccc(/C=C/C2=[N+]3C(=C(/C=C/c4ccc(N(C)C)cc4)c4ccc(/C=C/c5ccc(OC)cc5)n4[B-]3(F)F)C=C2)cc1  320 nM
2. CC1=[N+]2C(=C(/C=C/c3ccc(N(C)C)cc3)c3ccc(C)n3[B-]2(F)F)C=C1  320 nM
3. COc1ccc(/C=C/c2ccc3n2[B-](F)(F)[N+]2=C(C)C=CC2=C3/C=C/c2ccc(N(C)C)cc2)cc1  230 nM
4. Cc1cc(/C=C/c2ccc(N(C)C)o2)n2c1C=C1C=CC=[N+]1[B-]2(F)F  149 nM
5. COCCOCCOCC1=C2C(C)=CC(/C=C/c3ccc(N(C)C)cc3)=[N+]2[B-](F)(F)n2c(/C=C/c3ccc(N(C)C)cc3)cc(C)c21  97 nM
6. Cc1cc(/C=C/c2ccc(N(C)C)s2)n2c1C=C1C=CC=[N+]1[B-]2(F)F  55 nM
7. COCCOCCOCC1=C2C(C)=CC(C)=[N+]2[B-](F)(F)n2c(/C=C/c3ccc(N(C)C)cc3)cc(C)c21  48.6 nM
8. Cc1cc(/C=C/c2ccc(-c3ccc(N(C)C)cc3)s2)n2c1C=C1C=CC=[N+]1[B-]2(F)F  27 nM
9. Cc1cc(/C=C/c2ccc(-c3ccc(N(C)C)cc3)o2)n2c1C=C1C=CC=[N+]1[B-]2(F)F  18 nM

molecular target: T1, Amyloid-beta precursor protein; experiment: Displacement of [125I]IMPY from amyloid beta (1 to 42) (unknown origin) measured by competitive radioligand binding assay; conditions: not given

In order of rising Kd:
1. CN(CCO)c1ccc2cc(/C=C/C=C/C=C(C#N)C#N)ccc2c1  14.5 nM
2. COC(=O)/C(C#N)=C/C=C/C=C/c1ccc(N(C)C)cc1  106 nM

For `COC(=O)C(=C/C=C/C=C/c1ccc(N(C)C)cc1)C(=O)OC`, the Ki was 652 nM.

system: not listed separately; experiment: Drug uptake in brain of Tg mouse at 2 mins post injection; assay type: ADME, tissue-based; conditions: read-out: Drug uptake

With `O=C1NC(=S)NC(=O)C1=C/C=C/C=C/C1C(=O)NC(=S)NC1O` (stereo not drawn) the tissue uptake at 2 min was 0.04 %ID/g.

system: not listed separately; experiment: Lipophilicity, logP of compound; assay type: physicochemical; conditions: octanol/water

In order of falling logP:
1. CN(C)c1ccc2cc(/C=C/C=C/C=C(C#N)C#N)ccc2c1  4.48
2. CN(C)c1ccc2cc(/C=C/C=C(C#N)C#N)ccc2c1  4.1
3. CCOC(=O)CN1C(=O)/C(=C/c2ccc3c(c2)Sc2ccccc2N3C)SC1=S  3.68
4. CCOC(=O)CN1C(=O)S/C(=C\C=C\c2ccc3c(c2)Sc2ccccc2N3C)C1=O  3.6

system: not listed separately; experiment: Drug uptake in brain of Tg mouse; assay type: ADME, tissue-based; conditions: Tg, brain, read-out: Drug uptake

In order of falling tissue uptake:
1. CN(C)c1ccc2cc(/C=C/C=C/C=C(C#N)C#N)ccc2c1  3.4 %ID/g
2. CN(C)c1ccc2cc(/C=C/C=C(C#N)C#N)ccc2c1  1.9 %ID/g

organism: Homo sapiens; experiment: Inhibition of amyloid beta (unknown origin) assessed as decrease in amyloid beta monomers; conditions: not given

`Nc1c(/N=N/c2ccc(-c3ccc(/N=N/c4cc(S(=O)(=O)O)c5ccccc5c4N)cc3)cc2)cc(S(=O)(=O)O)c2ccccc12` gave an ID50 of 3400 nM.

system: not listed separately; experiment: Inhibition of amyloid beta (unknown origin) self-induced aggregation; design: species or system Homo sapiens; conditions: not given

In order of falling IC50:
1. CCOC(=O)CN1C(=O)S/C(=C\C=C\c2ccc3c(c2)Sc2ccccc2N3C)C1=O  1800 nM
2. CCOC(=O)CN1C(=O)/C(=C/c2ccc3c(c2)Sc2ccccc2N3C)SC1=S  670 nM

organism: Homo sapiens; experiment: Inhibition of amyloid beta (unknown origin) measured by ThT-based fluorimetric assay; conditions: concentration not given here

For `Cc1ccc2nc(/C=C/c3ccc(N)cc3)ccc2c1`, the inhibition was 73%.
